Test results reported in US12115167B2 (Woolsey Pharmaceuticals, Inc., priority 2022, dated 2024).
Counter-ions that a name gives are not always drawn.

Experiment: Stability of fasudil in 0.05M citrate buffer with and without EDTA, 60° C. for 36 days
Assay type: physicochemical
Settings: 60° C. 36 days, in words
Experimental: Samples were stored at 60° C. for 36 days.

## O=S(=O)(c1cccc2cnccc12)N1CCCNCC1 [fasudil, hexahydro-1-(5-isoquinolinesulfonyl)-1H-1,4-diazepine monohydrochloride hemihydrate]
  compatibility with EDTA: compatible with EDTA in citrate buffer
